# Test results taken from patent publication US20240207256A1, “CERTAIN CHEMICAL ENTITIES, COMPOSITIONS, AND METHODS” (NeuPharma, Inc, priority 2021, published 2024).
# Assays:
# [1] = Elution of Compound A from loaded microspheres using the T-Apparatus; assay type: physicochemical; conditions: 50 mL PBS pH 7.4, 25° C.
# Experimental: The microspheres loaded with Compound A were eluted into 50 mL of phosphate buffer solution (PBS, pH 7.4) at 25° C. using a T-Apparatus (Lewis A L, Gonzalez M V, Lloyd A W, et al. DC bead: in vitro characterization of a drug-delivery device for transarterial chemoembolization. J Vasc Interv Radiol, 2006, 17: 335-42). The concentration of Compound A was determined using HPLC method.
# (§1) HPLC was performed using the following instrument and/or conditions: […]
# [2] = Compound A loading onto CalliSpheres microspheres (residual concentration by HPLC); assay type: physicochemical; conditions: for Concentration of Residual: 1 g microspheres 100-300 μm, 2 mg in 4 ml NaOAc/HOAc buffer 100 mM pH5.0; for Amount of Compound Loaded: onto 1 g microspheres
# Experimental: Microspheres (1 g, 100-300 μm, CalliSpheres® CallisynBiomedical, Inc.) were immersed into Compound A solution (2 mg in 4 ml of NaOAc/HOAc buffer (100 mM, pH5.0)) using a 10 mL disposable syringe. Residual compound concentration remaining in the depleted loading solution over time was determined by HPLC method.
# as §1
# [3] = biological target: Na+/K+-ATPase; experiment: Na+/K+-ATPase inhibition; assay type: biochemical; conditions: read-out: IC50 against Na+/K+-ATPase
smiles,measurement,setting,value
"C[C@]12CC[C@H](OC(=O)N3CCNCC3)C[C@H]1CC[C@@H]1[C@@H]2CC[C@]2(C)[C@@H](c3ccc(=O)oc3)CC[C@]12O [Compound A, (3S,5R,8R,9S,10S,13R,14S,17R)-14-hydroxy-10,13-dimethyl-17-(2-oxo-2H-pyran-5-yl)hexadecahydro-1H-cyclopenta[α]phenanthren-3-yl piperazine-1-carboxylate]",Amount of Compound Eluted,[1]; time 0.083 h,0.63 mg
same,Concentration of Compound Eluted,[1]; time 0.083 h,13000 ng/mL
same,Amount of Compound Eluted,[1]; time 0.5 h,0.67 mg
same,Concentration of Compound Eluted,[1]; time 0.5 h,14000 ng/mL
same,Amount of Compound Eluted,[1]; time 0.75 h,0.70 mg
same,Concentration of Compound Eluted,[1]; time 0.75 h,14000 ng/mL
same,Amount of Compound Eluted,[1]; time 1 h,0.70 mg
same,Concentration of Compound Eluted,[1]; time 1 h,14000 ng/mL
same,Amount of Compound Eluted,[1]; time 2 h,0.76 mg
same,Concentration of Compound Eluted,[1]; time 2 h,15000 ng/mL
same,Amount of Compound Eluted,[1]; time 4 h,0.94 mg
same,Concentration of Compound Eluted,[1]; time 4 h,19000 ng/mL
same,Amount of Compound Eluted,[1]; time 6 h,1.10 mg
same,Concentration of Compound Eluted,[1]; time 6 h,22000 ng/mL
same,Amount of Compound Eluted,[1]; time 24 h,1.21 mg
same,Concentration of Compound Eluted,[1]; time 24 h,24000 ng/mL
same,Concentration of Residual,[2]; time 0 h,458000 ng/mL
same,Amount of Compound Loaded,[2]; time 0 h,0 mg
same,Concentration of Residual,[2]; time 0.25 h,91000 ng/mL
same,Amount of Compound Loaded,[2]; time 0.25 h,1.47 mg
same,Concentration of Residual,[2]; time 0.5 h,81000 ng/mL
same,Amount of Compound Loaded,[2]; time 0.5 h,1.51 mg
same,Concentration of Residual,[2]; time 0.75 h,83000 ng/mL
same,Amount of Compound Loaded,[2]; time 0.75 h,1.50 mg
same,Concentration of Residual,[2]; time 1 h,60000 ng/mL
same,Amount of Compound Loaded,[2]; time 1 h,1.59 mg
same,IC50,[3],~20 nM
